Data as given in PubChem BioAssay (NCI).
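Growth conditions: 96-well plates. Treatment: test compound, 48 hours, 5 concentrations. Analysis: linear interpolation between bracketing concentrations; unreached endpoints set to highest concentration. Abbreviation: GI50, concentration required for 50% inhibition of growth. TGI is the concentration that stops growth completely.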

Columns and labels:
Test in all cases: NCI-60 cell line screen, 48 h
[1] = tested on: NCI-H522 lung
[2] = tested on: MOLT-4 leukemia
[3] = tested on: SNB-19 CNS
[4] = tested on: UACC-62 melanoma
[5] = tested on: HCT-15 colon
[6] = tested on: SR leukemia
[7] = tested on: COLO 205 colon
[8] = tested on: UACC-257 melanoma
[9] = tested on: OVCAR-5 ovarian
[10] = tested on: HS 578T breast

Row | Structure (SMILES) | GI50 [1] | TGI [1] | GI50 [2] | TGI [2] | GI50 [3] | TGI [3] | GI50 [4] | TGI [4] | GI50 [5] | TGI [5] | GI50 [6] | TGI [6] | GI50 [7] | TGI [7] | GI50 [8] | TGI [8] | GI50 [9] | TGI [9] | GI50 [10] | TGI [10]
1 | O=C(Nc1ccccc1Cl)c1ccc(NC2=C(Cl)C(=O)N(C3CCCCC3)C2=O)cc1 | 6.23 µM | 34.7 µM | 5.56 µM | 20.4 µM | 16.9 µM | 38.5 µM | 6.78 µM | 26.5 µM | 6.79 µM | 25.2 µM | 3.03 µM | 7.87 µM | 18.7 µM | 38.3 µM | 5.29 µM | 15 µM | 49.5 µM | 128 µM | 6.75 µM | 133 µM
2 | O=C(Nc1cccc(C(F)(F)F)c1)c1ccc(NC2=C(Cl)C(=O)N(Cc3ccccc3)C2=O)cc1 | 3.02 µM | 8.29 µM | 1.27 µM | 10.3 µM | 20.4 µM | 40.5 µM | 12.9 µM | 25.5 µM | 4.41 µM | 18.9 µM | 0.421 µM | 2.82 µM | 21.9 µM | 49.8 µM | 27.9 µM | 58 µM | 16.3 µM | 34.5 µM | 22.1 µM | > 100 µM
3 | CCCCc1n(Cc2ccc3ccccc3n2)cc[n+]1Cc1ccc2ccccc2n1 | 0.445 µM | 4.99 µM | 1.81 µM | 11 µM | 0.826 µM | 12.9 µM | 0.749 µM | 3.56 µM | 14.8 µM | 31.5 µM | 0.537 µM | 4.87 µM | 0.535 µM | 2.28 µM | 0.543 µM | 4.32 µM | 2.66 µM | 13.7 µM | 2.76 µM | 16.5 µM
4 | Cc1ccc2[nH]c(O)c(N=Nc3ccccc3[N+](=O)[O-])c2c1 | – | 5.29 µM | – | > 100 µM | – | > 81.1 µM | – | > 100 µM | – | > 100 µM | – | 32.6 µM | – | > 100 µM | – | > 100 µM | – | > 84.3 µM | – | 28.9 µM
5 | C=CCOc1ccc(N)c([N+](=O)[O-])c1 | – | > 100 µM | – | > 100 µM | – | > 100 µM | – | > 100 µM | – | > 100 µM | – | > 100 µM | – | > 100 µM | – | > 100 µM | – | > 100 µM | – | > 100 µM
6 | COc1ccc(C2CC(c3ccc(OC)cc3O)=NN2c2ccc(S(N)(=O)=O)cc2)cc1 (centres undefined) | 15.5 µM | > 100 µM | 2.88 µM | 36.6 µM | 27.3 µM | > 100 µM | 8.76 µM | > 100 µM | 5.98 µM | > 100 µM | 1.47 µM | 9.61 µM | 5.98 µM | 20.1 µM | 15.9 µM | > 100 µM | 79.9 µM | > 100 µM | 8.22 µM | 98.9 µM
7 | COc1ccc(CNCCCN2C(=O)c3ccc4c5c(ccc(c35)C2=O)C(=O)N(CCCNCc2ccc(OC)c(OC)c2OC)C4=O)c(OC)c1OC | 0.0804 µM | 0.163 µM | 0.121 µM | 0.291 µM | 0.0877 µM | 0.18 µM | 0.093 µM | 0.182 µM | 0.244 µM | 0.952 µM | 0.165 µM | 0.644 µM | 0.0524 µM | 0.12 µM | 0.0921 µM | 0.167 µM | 0.108 µM | 0.25 µM | 0.568 µM | 3.15 µM
8 | COc1ccccc1NC(=O)CC(=O)n1nc(C)c(N=Nc2ccccc2Cl)c1C | – | > 100 µM | – | > 100 µM | – | > 100 µM | – | > 100 µM | – | > 100 µM | – | 97.9 µM | – | > 100 µM | – | > 100 µM | – | > 100 µM | – | > 100 µM
9 | CCN(CC)CCn1c(=O)c2cc(OC)c(OC)cc2c2ccc3cc4c(cc3c21)OCO4 | 0.151 µM | 21 µM | 0.0715 µM | 3.72 µM | 0.367 µM | 27.2 µM | 0.163 µM | 14.8 µM | 1.61 µM | 10.3 µM | 0.0415 µM | 2.51 µM | 0.192 µM | 16.4 µM | 0.472 µM | 22.2 µM | 8.21 µM | 36.1 µM | 12.4 µM | 45.4 µM
10 | CCOC(=O)Nc1ccc2c(c1)C(=O)N(CC)c1ccccc1O2 | 0.0797 µM | 1.09 µM | 0.125 µM | > 100 µM | 0.268 µM | > 100 µM | 0.101 µM | > 100 µM | 0.0746 µM | > 100 µM | 0.0479 µM | – | 0.0819 µM | 0.617 µM | 35.6 µM | > 100 µM | – | > 100 µM | 0.117 µM | > 100 µM
11 | COc1c(C)c(OC)c(C(=O)CC(C)C)c(OC)c1C | – | > 100 µM | – | > 100 µM | – | > 100 µM | – | > 100 µM | – | > 100 µM | – | > 100 µM | – | > 100 µM | – | > 100 µM | – | > 100 µM | – | > 100 µM
12 | FC(F)(F)c1cc(NC(=S)N2c3ccccc3-n3cccc3C2c2cccnc2)cc(C(F)(F)F)c1 (centres undefined) | 3.68 µM | 13.7 µM | 3.96 µM | 20.2 µM | 7.55 µM | 29.9 µM | 11.7 µM | 24.4 µM | 4.76 µM | 27.7 µM | 4.64 µM | 22.7 µM | 9.07 µM | 21.6 µM | 3.9 µM | 15.7 µM | 22 µM | 59.2 µM | 12.5 µM | 40.6 µM
13 | CC(=O)Nc1ccc(OC(C)=O)cc1 | < 0.01 µM | < 0.01 µM | < 0.01 µM | 3.79 µM | < 0.0126 µM | > 100 µM | < 0.01 µM | 12.7 µM | < 0.01 µM | 16.6 µM | < 0.01 µM | 1.5 µM | < 0.01 µM | 0.01 µM | – | 29.7 µM | < 0.01 µM | > 100 µM | < 0.0166 µM | 61.5 µM
14 | O=C1OC(c2ccc(Cl)cc2)=N/C1=C\c1ccccc1 | – | > 100 µM | – | – | – | > 100 µM | – | > 100 µM | – | > 100 µM | – | > 100 µM | – | > 100 µM | – | > 100 µM | – | > 100 µM | – | > 100 µM
15 | COc1cc2c(c(OC)c1OC)-c1c(c3ccc([N+](=O)[O-])cc3c(=O)n1CCCBr)C2=O | 17 µM | > 100 µM | 15.2 µM | > 100 µM | 57.4 µM | > 100 µM | 23.8 µM | 90.1 µM | – | – | 4.37 µM | > 100 µM | > 100 µM | > 100 µM | > 100 µM | > 100 µM | > 100 µM | > 100 µM | 67.9 µM | > 100 µM
